# Results reported in patent US20230103791A1 (GLAXOSMITHKLINE INTELLECTUAL PROPERTY DEVELOPMENT LIMITED, priority 2019, published 2023).
# Target: T1, human Nav1.8 (Homo sapiens, UniProt Q9Y5Y9)
# T1 construct: expressed in transfected cells; host or cells: HEK293 (HEK293-Nav1.8)
# Assay: Nav1.8 sodium channels assay, QPatch 48 HTX electrophysiology in HEK293-Nav1.8 cells
# Format: cell-based
# Conditions: at least one set of experimental runs; read-out: average pIC50 value against Nav1.8 (converted)
# Summary of the method: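 IC50 came from 6-8 point curves of P2 current amplitude, normalized to baseline and a positive reference, and corrected for run-down using vehicle-only wells. Automated patch clamp used HEK293-Nav1.8 (with Navβ1 and TREK1) at pH 7.4 outside and CsF-based solution inside. An 8 s inactivating step at −46 mV preceded the 0 mV test pulse, repeated at 0.07 Hz.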
# T1 sequence (Q9Y5Y9 whole entry): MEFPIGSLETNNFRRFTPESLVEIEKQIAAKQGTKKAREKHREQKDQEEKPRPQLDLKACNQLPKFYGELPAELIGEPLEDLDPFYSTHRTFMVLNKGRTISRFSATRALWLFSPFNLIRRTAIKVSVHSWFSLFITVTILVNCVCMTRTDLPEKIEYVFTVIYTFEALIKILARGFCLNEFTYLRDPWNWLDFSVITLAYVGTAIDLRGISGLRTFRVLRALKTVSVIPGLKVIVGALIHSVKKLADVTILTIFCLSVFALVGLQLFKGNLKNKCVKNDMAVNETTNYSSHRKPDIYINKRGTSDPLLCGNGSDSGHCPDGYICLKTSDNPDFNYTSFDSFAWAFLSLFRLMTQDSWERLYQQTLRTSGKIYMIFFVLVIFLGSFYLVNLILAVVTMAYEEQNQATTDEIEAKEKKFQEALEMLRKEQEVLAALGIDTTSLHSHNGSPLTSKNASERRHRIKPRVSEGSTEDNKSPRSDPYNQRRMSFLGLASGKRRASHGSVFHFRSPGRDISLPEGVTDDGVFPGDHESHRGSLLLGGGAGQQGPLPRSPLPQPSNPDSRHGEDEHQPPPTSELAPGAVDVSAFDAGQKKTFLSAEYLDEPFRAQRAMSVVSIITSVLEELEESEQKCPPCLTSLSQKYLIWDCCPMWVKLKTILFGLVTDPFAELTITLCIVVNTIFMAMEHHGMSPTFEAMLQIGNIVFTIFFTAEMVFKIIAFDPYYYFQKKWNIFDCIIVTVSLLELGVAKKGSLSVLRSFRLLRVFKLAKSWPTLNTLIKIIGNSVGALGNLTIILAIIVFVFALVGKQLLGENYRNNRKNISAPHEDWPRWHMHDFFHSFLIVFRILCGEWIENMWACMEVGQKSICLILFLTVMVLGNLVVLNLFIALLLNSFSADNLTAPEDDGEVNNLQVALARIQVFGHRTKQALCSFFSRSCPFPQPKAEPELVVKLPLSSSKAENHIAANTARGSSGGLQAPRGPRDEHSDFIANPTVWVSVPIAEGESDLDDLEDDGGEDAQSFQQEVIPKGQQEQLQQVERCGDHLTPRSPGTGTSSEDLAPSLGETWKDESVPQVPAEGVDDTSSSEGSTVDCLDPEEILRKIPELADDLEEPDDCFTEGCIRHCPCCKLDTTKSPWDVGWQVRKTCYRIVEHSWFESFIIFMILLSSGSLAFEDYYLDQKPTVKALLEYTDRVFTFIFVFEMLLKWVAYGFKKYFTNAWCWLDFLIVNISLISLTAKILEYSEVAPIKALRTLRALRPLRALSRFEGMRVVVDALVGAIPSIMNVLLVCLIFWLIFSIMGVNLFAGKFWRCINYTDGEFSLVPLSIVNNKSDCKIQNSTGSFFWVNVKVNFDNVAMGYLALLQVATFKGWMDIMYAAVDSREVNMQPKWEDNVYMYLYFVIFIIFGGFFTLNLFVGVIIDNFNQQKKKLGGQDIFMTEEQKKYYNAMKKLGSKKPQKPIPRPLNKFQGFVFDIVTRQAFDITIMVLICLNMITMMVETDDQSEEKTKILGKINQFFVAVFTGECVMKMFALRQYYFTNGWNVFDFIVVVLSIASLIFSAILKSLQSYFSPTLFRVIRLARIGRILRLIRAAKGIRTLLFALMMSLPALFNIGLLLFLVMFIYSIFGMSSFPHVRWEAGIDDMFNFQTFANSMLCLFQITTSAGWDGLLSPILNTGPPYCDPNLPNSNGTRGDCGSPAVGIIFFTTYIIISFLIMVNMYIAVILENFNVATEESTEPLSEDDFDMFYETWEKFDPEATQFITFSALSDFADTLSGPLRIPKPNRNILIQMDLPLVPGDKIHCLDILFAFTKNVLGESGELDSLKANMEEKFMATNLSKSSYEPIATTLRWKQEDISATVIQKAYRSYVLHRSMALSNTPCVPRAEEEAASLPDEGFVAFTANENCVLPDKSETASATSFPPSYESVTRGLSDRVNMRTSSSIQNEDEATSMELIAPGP
# T1 sequence (Q07699 19-218 partner): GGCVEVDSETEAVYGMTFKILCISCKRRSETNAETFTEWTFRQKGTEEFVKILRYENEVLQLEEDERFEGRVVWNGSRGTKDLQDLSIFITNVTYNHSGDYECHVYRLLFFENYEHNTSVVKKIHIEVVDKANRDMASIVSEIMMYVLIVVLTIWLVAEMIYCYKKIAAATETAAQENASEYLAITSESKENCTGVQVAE
row,IC50,SMILES
1,≤ 100 nM,"Cc1[nH]c(=O)ccc1N1CN(c2ccc(F)c(F)c2C)c2ccc(C(F)(F)F)cc2C1=O [Example 96, 1-(3,4-difluoro-2-methylphenyl)-3-(2-methyl-6-oxo-1,6-dihydropyridin-3-yl)-6-(trifluoromethyl)-2,3-dihydroquinazolin-4(1H)-one]"
2,≤ 100 nM,"Cc1[nH]c(=O)ccc1N1CN(c2ccc(F)cc2C(C)C)c2ccc(Cl)c(C)c2C1=O [Example 97, 6-chloro-1-(4-fluoro-2-isopropylphenyl)-5-methyl-3-(2-methyl-6-oxo-1,6-dihydropyridin-3-yl)-2,3-dihydroquinazolin-4(1H)-one]"
3,≤ 100 nM,"Cc1[nH]c(=O)ccc1N1CN(c2ccc(F)cc2C(C)C)c2cc(F)c(Cl)cc2C1=O [Example 98, 6-chloro-7-fluoro-1-(4-fluoro-2-isopropylphenyl)-3-(2-methyl-6-oxo-1,6-dihydropyridin-3-yl)-2,3-dihydroquinazolin-4(1H)-one]"
4,≤ 100 nM,"COc1ccc2c(c1)N(c1ccc(F)cc1C)CN(c1ccc(=O)[nH]c1C)C2=O [Example 99, 1-(4-fluoro-2-methylphenyl)-7-methoxy-3-(2-methyl-6-oxo-1,6-dihydropyridin-3-yl)-2,3-dihydroquinazolin-4(1H)-one]"
5,794 to 7940 nM,"Cc1cc(F)ccc1N1CN(c2ccc(=O)[nH]c2C)C(=O)c2cc(O)c(C(F)(F)F)cc21 [Example 100, 1-(4-fluoro-2-methylphenyl)-6-hydroxy-3-(2-methyl-6-oxo-1,6-dihydropyridin-3-yl)-7-(trifluoromethyl)-2,3-dihydroquinazolin-4(1H)-one]"
6,≤ 100 nM,"COc1cc2c(cc1C(F)(F)F)N(c1ccc(F)cc1C)CN(c1ccc(=O)[nH]c1C)C2=O [Example 101, 1-(4-fluoro-2-methylphenyl)-6-methoxy-3-(2-methyl-6-oxo-1,6-dihydropyridin-3-yl)-7-(trifluoromethyl)-2,3-dihydroquinazolin-4(1H)-one]"
7,126 to 631 nM,"Cc1cc(F)ccc1N1CN(c2ccc(=O)[nH]c2C)C(=O)c2cc(Cl)cnc21 [Example 102, 6-chloro-1-(4-fluoro-2-methylphenyl)-3-(2-methyl-6-oxo-1,6-dihydropyridin-3-yl)-2,3-dihydropyrido[2,3-d]pyrimidin-4(1H)-one]"
8,≤ 100 nM,"Cc1[nH]c(=O)ccc1N1CN(c2ccc(F)cc2C(C)C)c2cc(OC(F)(F)F)ccc2C1=O [Example 103, 1-(4-fluoro-2-isopropylphenyl)-3-(2-methyl-6-oxo-1,6-dihydropyridin-3-yl)-7-(trifluoromethoxy)-2,3-dihydroquinazolin-4(1H)-one]"
9,≤ 100 nM,"Cc1cc(F)ccc1N1CN(c2ccc(=O)[nH]c2C)C(=O)c2cc(Cl)c(F)cc21 [Example 104, 6-chloro-7-fluoro-1-(4-fluoro-2-methylphenyl)-3-(2-methyl-6-oxo-1,6-dihydropyridin-3-yl)-2,3-dihydroquinazolin-4(1H)-one]"
10,≤ 100 nM,"Cc1cc(F)ccc1N1CN(c2ccc(=O)[nH]c2C)C(=O)c2cc(Cl)c(C#N)cc21 [Example 105, 6-chloro-1-(4-fluoro-2-methylphenyl)-3-(2-methyl-6-oxo-1,6-dihydropyridin-3-yl)-4-oxo-1,2,3,4-tetrahydroquinazoline-7-carbonitrile]"
11,≤ 100 nM,"CCc1[nH]c(=O)ccc1N1CN(c2ccc(F)cc2C)c2ccc(Cl)cc2C1=O [Example 106, 6-chloro-3-(2-ethyl-6-oxo-1,6-dihydropyridin-3-yl)-1-(4-fluoro-2-methylphenyl)-2,3-dihydroquinazolin-4(1H)-one]"
12,≤ 100 nM,"Cc1cc(F)ccc1N1CN(c2ccc(=O)[nH]c2C)C(=O)c2cc(C(F)(F)F)c(F)cc21 [Example 107, 7-fluoro-1-(4-fluoro-2-methylphenyl)-3-(2-methyl-6-oxo-1,6-dihydropyridin-3-yl)-6-(trifluoromethyl)-2,3-dihydroquinazolin-4(1H)-one]"
13,≤ 100 nM,"Cc1cc(F)ccc1N1CN(c2ccc(=O)[nH]c2C)C(=O)c2c1ccc(C(F)(F)F)c2F [Example 108, 5-fluoro-1-(4-fluoro-2-methylphenyl)-3-(2-methyl-6-oxo-1,6-dihydropyridin-3-yl)-6-(trifluoromethyl)-2,3-dihydroquinazolin-4(1H)-one]"
14,≤ 100 nM,"Cc1cc(F)ccc1N1CN(c2ccc(=O)[nH]c2C)C(=O)c2cc(F)c(Cl)cc21 [Example 109, 7-chloro-6-fluoro-1-(4-fluoro-2-methylphenyl)-3-(2-methyl-6-oxo-1,6-dihydropyridin-3-yl)-2,3-dihydroquinazolin-4(1H)-one]"

# More lines, now with the values behind:
row,SMILES,IC50
1,"Cc1cc(F)ccc1N1CN(c2ccc(=O)[nH]c2C)C(=O)c2c1ccc(Cl)c2F [Example 79, 6-chloro-5-fluoro-1-(4-fluoro-2-methylphenyl)-3-(2-methyl-6-oxo-1,6-dihydropyridin-3-yl)-2,3-dihydroquinazolin-4(1H)-one]",≤ 100 nM
2,"Cc1cc(F)ccc1N1CN(c2ccc(=O)[nH]c2C)C(=O)c2ccc(S(C)(=O)=O)cc21 [Example 80, 1-(4-fluoro-2-methylphenyl)-3-(2-methyl-6-oxo-1,6-dihydropyridin, 3-yl)-7-(methylsulfonyl)-2,3-dihydroquinazolin-4(1H)-one]",794 to 7940 nM
3,"CCc1cc(F)ccc1N1CN(c2ccc(=O)[nH]c2C)C(=O)c2cc(Cl)ccc21 [Example 81, 6-chloro-1-(2-ethyl-4-fluorophenyl)-3-(2-methyl-6-oxo-1,6-dihydropyridin-3-yl)-2,3-dihydroquinazolin-4(1H)-one]",≤ 100 nM
4,"Cc1cc(=O)[nH]c(C)c1N1CN(c2ccc(F)cc2C(C)C)c2ccc(Cl)cc2C1=O [Example 82, 6-chloro-3-(2,4-dimethyl-6-oxo-1,6-dihydropyridin-3-yl)-1-(4-fluoro-2-isopropylphenyl)-2,3-dihydroquinazolin-4(1H)-one]",126 to 631 nM
5,"CCc1[nH]c(=O)ccc1N1CN(c2ccc(F)cc2C(C)C)c2cc(C(F)(F)F)ccc2C1=O [Example 83, 3-(2-ethyl-6-oxo-1,6-dihydropyridin-3-yl)-1-(4-fluoro-2-isopropylphenyl)-7-(trifluoromethyl)-2,3-dihydroquinazolin-4(1H)-one]",≤ 100 nM
6,"Cc1cc(F)ccc1N1CN(c2c[nH]c(=O)cn2)C(=O)c2ccc(C(F)(F)F)cc21 [Example 84, 1-(4-fluoro-2-methylphenyl)-3-(5-oxo-4,5-dihydropyrazin-2-yl)-7-(trifluoromethyl)-2,3-dihydroquinazolin-4(1H)-one]",794 to 7940 nM
7,"Cc1cc2c(cc1F)C(=O)N(c1ccc(=O)[nH]c1C)CN2c1ccc(F)cc1C [Example 85, 6-fluoro-1-(4-fluoro-2-methylphenyl)-7-methyl-3-(2-methyl-6-oxo-1,6-dihydropyridin-3-yl)-2,3-dihydroquinazolin-4(1H)-one]",≤ 100 nM
8,"Cc1[nH]c(=O)ccc1N1CN(c2ccccc2)c2cc(C(F)(F)F)ccc2C1=O [Example 86, 3-(2-methyl-6-oxo-1,6-dihydropyridin-3-yl)-1-phenyl-7-(trifluoromethyl)-2,3-dihydroquinazolin-4(1H)-one]",794 to 7940 nM
9,"Cc1ccccc1N1CN(c2ccc(=O)[nH]c2C)C(=O)c2ccc(C(F)(F)F)cc21 [Example 87, 3-(2-methyl-6-oxo-1,6-dihydropyridin-3-yl)-1-(o-tolyl)-7-(trifluoromethyl)-2,3-dihydroquinazolin-4(1H)-one]",≤ 100 nM
10,"Cc1cc(F)ccc1N1CN(c2ccc(=O)[nH]c2C)C(=O)c2c(Cl)cccc21 [Example 88, 5-chloro-1-(4-fluoro-2-methylphenyl)-3-(2-methyl-6-oxo-1,6-dihydropyridin-3-yl)-2,3-dihydroquinazolin-4(1H)-one]",126 to 631 nM
11,"Cc1cc(F)ccc1N1CN(c2ccc(=O)[nH]c2C)C(=O)c2c(C)cccc21 [Example 89, 1-(4-fluoro-2-methylphenyl)-5-methyl-3-(2-methyl-6-oxo-1,6-dihydropyridin-3-yl)-2,3-dihydroquinazolin-4(1H)-one]",≤ 100 nM
12,"Cc1cc(F)ccc1N1CN(c2ccc(=O)[nH]c2C2CC2)C(=O)c2ccc(C(F)(F)F)cc21 [Example 90, 3-(2-cyclopropyl-6-oxo-1,6-dihydropyridin-3-yl)-1-(4-fluoro-2-methylphenyl)-7-(trifluoromethyl)-2,3-dihydroquinazolin-4(1H)-one]",≤ 100 nM
13,"COc1cc(F)ccc1N1CN(c2ccc(=O)[nH]c2C)C(=O)c2cc(Cl)ccc21 [Example 91, 6-chloro-1-(4-fluoro-2-methoxyphenyl)-3-(2-methyl-6-oxo-1,6-dihydropyridin-3-yl)-2,3-dihydroquinazolin-4(1H)-one]",≤ 100 nM
14,"Cc1cc(F)ccc1N1CN(c2cc(=O)[nH]n2C)C(=O)c2ccc(C(F)(F)F)cc21 [Example 92, 1-(4-fluoro-2-methylphenyl)-3-(2-methyl-5-oxo-2,5-dihydro-1H-pyrazol-3-yl)-7-(trifluoromethyl)-2,3-dihydroquinazolin-4(1H)-one]",126 to 631 nM
15,"Cc1[nH]c(=O)ccc1N1CN(c2ccc(F)cc2C(C)C)c2cc(F)ccc2C1=O [Example 93, 7-fluoro-1-(4-fluoro-2-isopropylphenyl)-3-(2-methyl-6-oxo-1,6-dihydropyridin-3-yl)-2,3-dihydroquinazolin-4(1H)-one]",≤ 100 nM
16,"Cc1cc(F)ccc1N1CN(c2c(C)nc(=O)[nH]c2C)C(=O)c2ccc(C(F)(F)F)cc21 [Example 94, 3-(4,6-dimethyl-2-oxo-1,2-dihydropyrimidin-5-yl)-1-(4-fluoro-2-methylphenyl)-7-(trifluoromethyl)-2,3-dihydroquinazolin-4(1H)-one]",794 to 7940 nM
17,"Cc1[nH]c(=O)ccc1N1CN(c2ccc(F)cc2C(C)(C)C)c2ccc(Cl)cc2C1=O [Example 95, 1-(2-(tert-butyl)-4-fluorophenyl)-6-chloro-3-(2-methyl-6-oxo-1,6-dihydropyridin-3-yl)-2,3-dihydroquinazolin-4(1H)-one]",≤ 100 nM
